Results: US6147076A, “Analogues of N-acetylardeemin, method of preparation and uses thereof” (priority 1996, dated 2000)
Several values for one entry are separate records, joined by “and”; a condition that tells them apart may be missing. Equal values may be shown once. Read-outs that look alike come from different tables or passages of the source.

How the values were obtained:
DC-3F hamster lung cells [1] = test: Cytotoxicity toward DC-3F hamster lung cells
DC-3F/ADII cells [2] = tested on: DC-3F/ADII cells
CCRF-CEM cells [3] = test: Cytotoxicity / growth inhibition of CCRF-CEM leukemic cells; conditions: Homo sapiens
CCRF-CEM/VLB-100 cells = test: Intracellular accumulation of [3H]vinblastine in CCRF-CEM/VLB-100 cells; type: cell-based, human; conditions: 30 μM
Description: (§1) *Cells were preloaded with [^3 H]
(§2) times (or without wash) with 100 ml cold medium to remove extracellular
(§3) with or without a reverse prenyl compound or an MDRreversing agent. Cells
(§4) were then separated from radioactive medium by microfuge oillayer method.
(§5) Extracellular space counts carried down # by cells (^3 HInulin space
(§6) were subtracted from the total radioactive counts.

P388/0 tumor [4] = conditions: DMNAA 50.0 mg/kg
Description: (§7) ^a Male BDF mice were inoculated with P388/O, 10^6 cell/mouse,
(§8) i.p. on day 0; and started treatment on day 1, i.p., Q5Dx5, besides mice
(§9) with dose VBL 3.0 and VBL 3.0 mg/kg + DMNAA 50 mg/kg, only one injection
(§10) i.p., on day 1. There were five mice at every dose and ten in the control

CCRF-CEM cells [5] = test: Intracellular accumulation of [3H]vinblastine in CCRF-CEM cells; type: cell-based, human; conditions: 30 μM
Description: as §1, §2, §3, §4, §5, §6

DC-3F/ADX cells = test: Cytotoxicity toward DC-3F/ADX cells; type: cell-based, hamster
DC-3F/ADII cells [6] = test: cells; conditions: Mesocricetus auratus, DC3F
CCRF-CEM/VBL100 cells [7] = test: cells; conditions: Homo sapiens, read-out: IC50 of reversing agent, Table 6B, CCRF-CEM/VBL
CCRF-CEM/VM-1 cells = test: Cytotoxicity toward VM-26-resistant CCRF-CEM/VM-1 cells (mutated Topo II gene); type: cell-based, human
P388 leukemic cells = test: Drug combination of adriamycin and 5-N-acetyl-ardeemin against P388 cell growth (XTT); conditions: Mus musculus, P388, drug alone
Description: microplate, 15,000 cell/well, N = 2. Platting cells on day 1, add drugs o
day 2 and XTT assay on day 5.

P388/O tumor = test: Combination therapy of adriamycin & 5-N-acetyl-ardeemin or verapamil in B6D2F1 mice bearing P388/O tumor; conditions: for Days survived: individual mice 1-5, listed as Adr;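 on all read-outs here: male BDF mice carrying P388/O given intraperitoneally, dosing begun on day 1 on a QDX4, QWX2 schedule, five animals per dose level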
Description: ^a Male BDF mice were inoculated P388/O, 10^6 cells/mouse, i.p. a
starting day 1, QDX4, QWX2.

P388/DX tumor = test: Combination therapy of adriamycin & 5-N-acetyl-ardeemin or verapamil in B6D2F1 mice bearing P388/DX tumor; conditions: for Days survived: individual mice 1-5, listed as Adr.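 On all read-outs here: male BDF mice implanted intraperitoneally with P388/DX cells, 10^6 per mouse, dosed from day 1 on a QDX4, QWX2 schedule, five mice per dose group.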
Description: ^a Male BDF mice were inoculated P388/DX, 10^6 cells/mouse, i.p.
starting day 1, QDX4, QWX2. There were five mice at every dose and ten

P388/DX = test: Survival time evaluation for BDF mice bearing P388/DX; conditions: for survival time: individual mice
P388/0 = test: Survival time evaluation for BDF mice bearing P388/0; conditions: for survival time: individual mice
Description: ^a Male BDF mice were inoculated with p388/0, 10E6 cells/mouse, I.P.

P388/DX leukemic cells = test: Drug combination of adriamycin and 5-N-acetyl-ardeemin against P388/DX cell growth (XTT); type: cell-based; conditions: drug alone
Description: | microplate, 25,000 cell/well, N = 2.

P388/0 tumor [8] = test: Combination therapy of adriamycin, vinblastine and des-Me-N-acetyl-ardeemin in B6D2F1 mice bearing P388/0 tumor; conditions: for Days survived: individual mice 1-5, listed as Adr.
Description: as §7, §8, §9, §10

CCRF-CEM cells [9] = test: Accumulation of VP-16 in CCRF-CEM cells preloaded with [3H]VP-16; conditions: Homo sapiens, 0.5 h, read-out: increase of intracellular accumulation of VP-16
CCRF-CEM cells [10] = tested on: CCRF-CEM cells
CCRF-CEM/VBL100 cells [11] = conditions: ccrf-cem/vbl100 cells
CCRF-CEM cells [12] = test: Influx of [3H]VP-16 in CCRF-CEM cells; type: cell-based, human; conditions: Homo sapiens, CCRF-CEM, 0.5 h; 20 μM, 30 min, 37° C.; read-out: increase of VP-16 accumulation
CCRF/VM-1 cells = test: Intracellular accumulation of VP-16 in CCRF/VM-1 cells; conditions: Homo sapiens, 0.5 h, read-out: increase of VP-16 accumulation
DC-3F hamster lung cells [13] = conditions: dc-3f cells
HCT116(VM)46 cells = test: Cytotoxicity (XTT, 72 hr) in multidrug resistant HCT116(VM)46 cells; type: cell-based; conditions: IC50 HCT116(VM)46 / HCT116; 4320 min
Description: All drug exposures were for 72 hr and cytotoxicity was measured by XTT tetrazolium dye assay.

## C=CC(C)(C)C12CC3c4nc5ccccc5c(=O)n4CC(=O)N3C1N(C(C)=O)c1ccccc12 (stereo not shown) [5-N-Ac-8-desmethyl-Ardeemin, N-Acetyl-8-desmethyl-ardeemin]
DC-3F hamster lung cells [1]; Mesocricetus auratus, DC3F, read-out: IC50 (A), mean ± spread, mean of the determinations
  IC50: 29.3 ± 8.38 µM
DC-3F hamster lung cells [1]; Mesocricetus auratus, DC3F, read-out: IC50 (A), single determinations
  IC50: 37.7 µM
DC-3F hamster lung cells [1]; read-out: IC50 (A), single determinations
  IC50: 20.9 µM
DC-3F/ADII cells [2]; IC50 ratio DC-3F/ADII to DC-3F, * collaterally sensitive
  (B)/(A): 0.50 X
CCRF-CEM cells [3]; read-out: IC50 of reversing agent, Table 6B, CCRF-CEM
  IC50: 22.7 µM
CCRF-CEM/VLB-100 cells; washed
  [3H]vinblastine accumulation: 7.66 fmole/10^3 cells
CCRF-CEM/VLB-100 cells; without wash
  [3H]vinblastine accumulation: 33.53 fmole/10^3 cells
P388/0 tumor [4]
  % ILS: +1%
  MST: 8.40 days
CCRF-CEM cells [5]; washed
  [3H]vinblastine accumulation: 29.33 fmole/10^3 cells
CCRF-CEM cells [5]; without wash
  [3H]vinblastine accumulation: 33.13 fmole/10^3 cells
DC-3F/ADX cells; DC3F/ADX, DC-3F/ADX
  IC50: 3.98 µM
DC-3F/ADX cells; IC50 ratio DC-3F/ADX to DC-3F, * collaterally sensitive
  (C)/(A): 0.14 X
DC-3F/ADII cells [6]; read-out: IC50 (B)
  IC50: 14.6 µM
CCRF-CEM/VBL100 cells [7]
  IC50: 32.9 µM
CCRF-CEM/VM-1 cells; Homo sapiens, CCRF-CEM, Table 6B, CCRF-CEM/VM-1, read-out: IC50 of reversing agent
  IC50: 35.8 µM

## COc1cccc2c1C(=O)c1c(O)c3c(c(O)c1C2=O)C[C@@](O)(C(=O)CO)C[C@@H]3O[C@H]1C[C@H](N)[C@H](O)[C@H](C)O1 [Adriamycin, adriamycin]
P388 leukemic cells
  IC50: 0.228 µM
DC-3F hamster lung cells [1]; Mesocricetus auratus, DC3F, read-out: IC50 for inhibiting cell growth, Table 7, DC-3F
  IC50: 0.03 µM
P388/O tumor; Adr 0.5 mg/kg
  % ILS: +128%
  MST: 17.3 days
  Days survived: 15.5 days and 16.0 days and 17.0 days and 18.0 days and 20.0 days
P388/O tumor; Adr 1.0 mg/kg
  % ILS: +152%
  MST: 19.1 days
  Days survived: 16.0 days and 19.0 days and 20.5 days and 21.0 days
P388/O tumor; Adr 2.0 mg/kg
  % ILS: +178%
  MST: 21.1 days
  Days survived: 19.0 days and 20.5 days and 21.0 days and 22.5 days
P388/O tumor; Adr 3.0 mg/kg
  % ILS: +181%
  MST: 19.8 days
  Days survived: 12.5 days and 16.0 days and 20.5 days and 24.6 days and 26.5 days
P388/O tumor; Adr 3.0 mg/kg, day 12.5 and 15
  deaths of toxicity: Two mice died of toxicity of drugs
P388/DX tumor; Adr. 0.5 mg/kg
  % ILS: +49%
  MST: 11.3 days
  Days survived: 7.5 days and 10.5 days and 12.25 days and 14.0 days
P388/DX tumor; Adr. 1.0 mg/kg
  % ILS: +75%
  MST: 13.25 days
  Days survived: 11.5 days and 12.25 days and 13.25 days and 16.0 days
P388/DX tumor; Adr. 2.0 mg/kg
  MST: 15.55 days
  Days survived: 14.0 days and 15.0 days and 15.25 days and 16.5 days and 17.0 days
P388/DX tumor; Adr. 3.0 mg/kg
  % ILS: +130%
  MST: 17.4 days
  Days survived: 14.0 days and 17.5 days and 21.0 days
P388/DX tumor; Adr. 3.0 mg/kg, day 14
  deaths of toxicity: Two mice died of toxicity of drugs
P388/DX; adriamycin 0.333 mg/kg
  % ILS: 24%
  MST: 9.0
  survival time: 8.0 and 8.5 and 9.5 and 10.0
P388/DX; adriamycin 1.0 mg/kg
  % ILS: 37%
  MST: 9.75
  survival time: 9.0 and 10.0 and 10.25 and 10.5
P388/DX; adriamycin 3.0 mg/kg
  % ILS: 48%
  MST: 10.75
  survival time: 10.0 and 11.5 and 12.25
P388/0; adriamycin 0.333 mg/kg
  % ILS: 85%
  MST: 13.75
  survival time: 12.25 and 13.0 and 14.25 and 15.5
P388/0; adriamycin 1.0 mg/kg
  % ILS: 129%
  MST: 17.0
  survival time: 14.25 and 15.5 and 18.0 and 20.25
P388/0; adriamycin 3.0 mg/kg
  % ILS: 145%
  MST: 18.19
  survival time: 16.0 and 17.25 and 19.25 and 20.25
DC-3F/ADII cells [6]; read-out: IC50 for inhibiting cell growth, Table 7, DC-3F/SDII
  IC50: 0.38 µM
P388/DX leukemic cells
  IC50: 2.14 µM
P388/0 tumor [8]; Adr. 3.0 mg/kg
  % ILS: +63%
  MST: 13.60 days
  Days survived: 10.5 days and 13.5 days and 14.5 days and 15.0 days
P388/0 tumor [8]; Adr. 5.0 mg/kg
  % ILS: +81%
  MST: 15.10 days
  Days survived: 10.5 days and 14.0 days and 16.0 days and 17.0 days and 18.0 days

## C=CC(C)(C)C12CC3c4nc5ccccc5c(=O)n4C(C)C(=O)N3C1Nc1ccccc12 (stereo not shown) [Ardeemin]
CCRF-CEM cells [9]
  fold induction at 20 µM: 3.1
DC-3F hamster lung cells [1]; Mesocricetus auratus, DC3F, relative cytotoxicity, DC-3F
  IC50: 10.2 µM
CCRF-CEM cells [10]
  IC90: 65.7 µM
CCRF-CEM/VBL100 cells [11]
  IC90: 27.9 µM
DC-3F/ADII cells [2]; dc-3f/adii cells
  IC90: 24.6 µM
CCRF-CEM cells [3]; human leukemic CCRF-CEM cells
  IC50: 20.8 µM
CCRF-CEM/VLB-100 cells; washed
  [3H]vinblastine accumulation: 5.42 fmole/10^3 cells
CCRF-CEM/VLB-100 cells; without wash
  [3H]vinblastine accumulation: 22.84 fmole/10^3 cells
CCRF-CEM cells [12]
  activation at 20 µM: 33%
CCRF-CEM cells [5]; washed
  [3H]vinblastine accumulation: 29.94 fmole/10^3 cells
CCRF-CEM cells [5]; without wash
  [3H]vinblastine accumulation: 34.68 fmole/10^3 cells
CCRF/VM-1 cells
  fold induction at 20 µM: 1.51
DC-3F hamster lung cells [13]
  IC80: 10.2 µM
  IC90: 30.9 µM
CCRF-CEM/VM-1 cells; ccrf-cem/vm-1 cells
  IC90: 88.8 µM

## CC(=O)O[C@H]1C(=O)[C@@]2(C)[C@H]([C@H](OC(=O)c3ccccc3)[C@]3(O)C[C@H](OC(=O)[C@H](O)[C@@H](NC(=O)c4ccccc4)c4ccccc4)C(C)=C1C3(C)C)[C@]1(OC(C)=O)CO[C@@H]1C[C@@H]2O [paclitaxel]
HCT116(VM)46 cells
  R/S ratio: 132
